Results published in EP4635500A1, “THERAPEUTIC AGENT FOR BACTERIAL INFECTION” (Sumitomo Pharma Co., Ltd., priority 2022, dated 2024).
Converted amounts (≈) assume the structure as drawn. Where two headings read alike, the source gives them in different places.

How the values were obtained:
53 CRE and CPE strains = test: MICrange, MIC50, MIC80, MIC90 for 53 bacterial isolates (Example 5, Table 5); format: cell-based; settings: 53 bacterial isolates
Enterobacterales = test: MIC, broth microdilution, CDC/FDA Antibiotic Resistance Isolate Bank (Example 7, Tables 8, 11, 12); format: cell-based; settings: read-out: MIC
A. baumannii = test: MIC, broth microdilution, CDC/FDA Antibiotic Resistance Isolate Bank (Example 7, Tables 9, 13, 14); format: cell-based, Acinetobacter baumannii; settings: for MIC: Acinetobacter baumannii, read-out: MIC
[1] = MIC distribution, metallo-β-lactamase-producing A. baumannii, inhibitor µg/mL in parentheses

SMILES: C[C@H]1[C@H](NC(=O)/C(=N\OC(C)(C)C(=O)O)c2csc(N)n2)C(=O)N1S(=O)(=O)O [Aztreonam, aztreonam]
- MIC80 (53 CRE and CPE strains; read-out: MIC80): > 64 µg/mL
- MIC90 (53 CRE and CPE strains; read-out: MIC90): > 64 µg/mL
- MIC (Enterobacterales; Enterobacter cloacae, Enterobacter cloacae KUB No. 5807, AR Bank #501): 1 µg/mL (≈ 2.3 µM)
- MIC (Enterobacterales; Enterobacter cloacae, Enterobacter cloacae group, KUB No. 5629, AR Bank # 132): 2 µg/mL (≈ 4.59 µM)
- MIC (Enterobacterales; Enterobacter cloacae, KUB No. 5529, AR Bank# 32): 32 µg/mL (≈ 73.5 µM)
- MIC (Enterobacterales; Enterobacter cloacae, KUB No. 5557, AR Bank# 60): 32 µg/mL (≈ 73.5 µM)
- MIC (Enterobacterales; Enterobacter cloacae, KUB No. 5570, AR Bank # 73): 4 µg/mL (≈ 9.19 µM)
- MIC (Enterobacterales; Enterobacter cloacae, KUB No. 5778, AR Bank # 432): 32 µg/mL (≈ 73.5 µM)
- MIC (Enterobacterales; Escherichia coli, Escherichia coli KUB No. 5796, AR Bank #452): 0.12 µg/mL (≈ 0.276 µM)
- MIC (Enterobacterales; Escherichia coli, Escherichia coli KUB No. 5803, AR Bank #861): 1 µg/mL (≈ 2.3 µM)
- MIC (Enterobacterales; Escherichia coli, KUB No. 5552, AR Bank# 55): 32 µg/mL (≈ 73.5 µM)
- MIC (Enterobacterales; Escherichia coli, KUB No. 5555, AR Bank# 58): 8 µg/mL (≈ 18.4 µM)
- MIC (Enterobacterales; Escherichia coli, KUB No. 5564, AR Bank # 67): 4 µg/mL (≈ 9.19 µM)
- MIC (Enterobacterales; Escherichia coli, KUB No. 5566, AR Bank # 69): 4 µg/mL (≈ 9.19 µM)
- MIC (Enterobacterales; Escherichia coli, KUB No. 5574, AR Bank # 77): 0.06 µg/mL (≈ 0.138 µM)
- MIC (Enterobacterales; Escherichia coli, KUB No. 5578, AR Bank # 81): 8 µg/mL (≈ 18.4 µM)
- MIC (Enterobacterales; Escherichia coli, KUB No. 5581, AR Bank # 84): 0.5 µg/mL (≈ 1.15 µM)
- MIC (Enterobacterales; Escherichia coli, KUB No. 5582, AR Bank # 85): 16 µg/mL (≈ 36.7 µM)
- MIC (Enterobacterales; Escherichia coli, KUB No. 5583, AR Bank # 86): 4 µg/mL (≈ 9.19 µM)
- MIC (Enterobacterales; Escherichia coli, KUB No. 5586, AR Bank # 89): 16 µg/mL (≈ 36.7 µM)
- MIC (Enterobacterales; Escherichia coli, KUB No. 5615, AR Bank # 118): 32 µg/mL (≈ 73.5 µM)
- MIC (Enterobacterales; Escherichia coli, KUB No. 5646, AR Bank # 149): 0.5 µg/mL (≈ 1.15 µM)
- MIC (Enterobacterales; Escherichia coli, KUB No. 5647, AR Bank # 150): 32 µg/mL (≈ 73.5 µM)
- MIC (Enterobacterales; Escherichia coli, KUB No. 5648, AR Bank # 151): 32 µg/mL (≈ 73.5 µM)
- MIC (Enterobacterales; Escherichia coli, KUB No. 5764, AR Bank # 368): 0.06 µg/mL (≈ 0.138 µM)
- MIC (Enterobacterales; Escherichia coli, KUB No. 5767, AR Bank # 371): 16 µg/mL (≈ 36.7 µM)
- MIC (Enterobacterales; Escherichia coli, KUB No. 5769, AR Bank # 373): 16 µg/mL (≈ 36.7 µM)
- MIC (Enterobacterales; Escherichia coli, KUB No. 5770, AR Bank # 374): 16 µg/mL (≈ 36.7 µM)
- MIC (Enterobacterales; Escherichia coli, KUB No. 5774, AR Bank # 378): 0.12 µg/mL (≈ 0.276 µM)
- MIC (Enterobacterales; Escherichia coli, KUB No. 5779, AR Bank # 433): 32 µg/mL (≈ 73.5 µM)
- MIC (Enterobacterales; Escherichia, KUB No. 57, AR Bank # 436 (row cut off)): 32 µg/mL (≈ 73.5 µM)
- MIC (Enterobacterales; Klebsiella aerogenes, Enterobacter aerogenes, KUB No. 5559, AR Bank # 62): 16 µg/mL (≈ 36.7 µM)
- MIC (Enterobacterales; Klebsiella aerogenes, Enterobacter aerogenes, KUB No. 5571, AR Bank # 74): 0.12 µg/mL (≈ 0.276 µM)
- MIC (Enterobacterales; Klebsiella aerogenes, Enterobacter aerogenes, KUB No. 5658, AR Bank # 161): 32 µg/mL (≈ 73.5 µM)
- MIC (Enterobacterales; Klebsiella aerogenes, Enterobacter aerogenes, KUB No. 5777, AR Bank # 431): 16 µg/mL (≈ 36.7 µM)
- MIC (Enterobacterales; Klebsiella oxytoca, KUB No. 5644, AR Bank # 147): 4 µg/mL (≈ 9.19 µM)
- MIC (Enterobacterales; Klebsiella oxytoca, KUB No. 5771, AR Bank # 375): 32 µg/mL (≈ 73.5 µM)
- MIC (Enterobacterales; Klebsiella pneumoniae, KUB No. 5531, AR Bank# 34): 0.06 µg/mL (≈ 0.138 µM)
- MIC (Enterobacterales; Klebsiella pneumoniae, KUB No. 5573, AR Bank # 76): 0.25 µg/mL (≈ 0.574 µM)
- MIC (Enterobacterales; Klebsiella pneumoniae, KUB No. 5623, AR Bank # 126): 32 µg/mL (≈ 73.5 µM)
- MIC (Enterobacterales; Klebsiella pneumoniae, KUB No. 5657, AR Bank # 160): 0.12 µg/mL (≈ 0.276 µM)
- MIC (Enterobacterales; Klebsiella pneumoniae, Klebsiella pneumoniae KUB No. 5809, AR Bank #504): 32 µg/mL (≈ 73.5 µM)
- MIC (Enterobacterales; Morganella morganii, Morganella morganii KUB No. 5824, AR Bank #519): 32 µg/mL (≈ 73.5 µM)
- MIC (Enterobacterales; Proteus mirabilis, KUB No. 5556, AR Bank# 59): 0.25 µg/mL (≈ 0.574 µM)
- MIC (Enterobacterales; Proteus mirabilis, KUB No. 5652, AR Bank # 155): 4 µg/mL (≈ 9.19 µM)
- MIC (Enterobacterales; Proteus mirabilis, KUB No. 5653, AR Bank # 156): ≤ 0.03 µg/mL
- MIC (Enterobacterales; Proteus mirabilis, KUB No. 5656, AR Bank # 159): ≤ 0.03 µg/mL
- MIC (Enterobacterales; Proteus mirabilis, KUB No. 5773, AR Bank # 377): 4 µg/mL (≈ 9.19 µM)
- MIC (Enterobacterales; Proteus mirabilis, KUB No. 5775, AR Bank # 379): 0.25 µg/mL (≈ 0.574 µM)
- MIC (Enterobacterales; Providencia rettgeri, KUB No. 5579, AR Bank # 82): ≤ 0.03 µg/mL
- MIC (Enterobacterales; Raoultella ornithinolvtica, KUB No. 5631, AR Bank # 134): 8 µg/mL (≈ 18.4 µM)
- MIC (Enterobacterales; Serratia marcescens, KUB No. 5588, AR Bank # 91): 32 µg/mL (≈ 73.5 µM)
- MIC (Enterobacterales; Serratia marcescens, KUB No. 5618, AR Bank # 121): 16 µg/mL (≈ 36.7 µM)
- MIC (Enterobacterales; Serratia marcescens, KUB No. 5619, AR Bank # 122): 16 µg/mL (≈ 36.7 µM)
- MIC (Enterobacterales; Serratia marcescens, KUB No. 5620, AR Bank # 123): 16 µg/mL (≈ 36.7 µM)
- MIC (Enterobacterales; Serratia marcescens, KUB No. 5621, AR Bank # 124): 8 µg/mL (≈ 18.4 µM)
- MIC (Enterobacterales; Serratia marcescens, KUB No. 5627, AR Bank # 130): 16 µg/mL (≈ 36.7 µM)
- MIC (Enterobacterales; Serratia marcescens, KUB No. 5628, AR Bank # 131): 16 µg/mL (≈ 36.7 µM)
- MIC (Enterobacterales; Serratia marcescens, Serratia marcescens KUB No. 5825, AR Bank #520): 2 µg/mL (≈ 4.59 µM)
- MIC (A. baumannii; A. baumannii KUB No. 5585, AR Bank #88, OXA-64, NDM-1): 32 µg/mL (≈ 73.5 µM)
- MIC (A. baumannii; A. baumannii KUB No. 5714, AR Bank #281, OXA-82): 32 µg/mL (≈ 73.5 µM)
- MIC (A. baumannii; KUB No. 5719, AR Bank #286): 32 µg/mL (≈ 73.5 µM)
- MIC (A. baumannii; KUB No. 5720, AR Bank #287): 32 µg/mL (≈ 73.5 µM)
- MIC (A. baumannii; KUB No. 5727, AR Bank #294): 32 µg/mL (≈ 73.5 µM)
- Number of isolates at MIC 32 µg/mL (A. baumannii; [1]): 1
- Number of isolates at MIC >64 µg/mL (A. baumannii; [1]): 3
